The nature of data set [1]: Metabolic stability test in liver S9. It is filed as in vitro ADME. The conditions noted are these: pH 7.4, human liver S9 2 mg protein/mL, LC/MS; for remaining at 10 min: unchanged form after 10 minutes at 37°C, read-out: Remaining rate in human liver S9 (%/10min); for remaining at 1 h: unchanged form after 60 minutes at 37°C, read-out: Remaining rate in human liver S9 (%/60min). The procedure:
Human liver S9 (final concentration: 2 mg protein/mL), was suspended in 100 mM potassium phosphate buffer (pH 7.4, containing β-nicotinamide adenine dinucleotide phosphate: 1.3 mM, D-glucose-6- phosphate: 3.3 mM, magnesium chloride: 3.3 mM, glucose-6-phosphate dehydrogenase:0.4 U/mL). The suspension was mixed with a solution of a sample dissolved in DMSO. The solution was incubated at 37°C for 0, 10 and 60 minutes, and an acetonitrile containing formic acid (final concentration: 0.1%) was added thereto. The solutions were centrifuged, and the concentration of the sample (unchanged form) in the supernatant was determined by high performance liquid chromatography/mass spectrometry (LC/MS). Based on the data obtained, remaining rate (%) was calculated according to the following equation. Remaining rate(%) = amount of sample 0,10, or 60 minutes after [formula] incubation/amount of sample at zero time after incubation × 100 [formula]
(§1) With respect to the compounds obtained in Working Examples according to the present invention (Compounds 1-1 to 1-115, 2-1, 3-1, 3-2, and 4-1 to 4-4), the results of the remaining rate in human liver S9 and plasma are shown in Tables 28 to 32.

A short description of data set [2]: Stability test in buffer (pH 7.4). The format is physicochemical. The conditions noted are these: phosphate buffer/acetonitrile 7:3, 100 mM potassium phosphate buffer (pH 7.4) and acetonitrile 7:3 (v/v), LC/MS; for remaining at 10 min: 10 minutes at 37°C, read-out: Buf. remaining rate (%/10min); for remaining at 1 h: 60 minutes at 37°C, read-out: Buf. remaining rate (%/60min). The procedure: In the tables, Buf. remaining rate was determined by stability test in buffer (pH 7.4) as described below. A sample dissolved in DMSO was mixed with a mixed solution of 100 mM potassium phosphate buffer and acetonitrile in the ratio of 7:3 (v/v). The mixture was incubated at 37°C for 0, 10, and 60 minutes, and acetonitrile containing formic acid (final concentration: 0.1%) was added thereto. The solution was centrifuged, and the concentration of the sample (unchanged form) in the supernatant was determined by high performance liquid chromatography/mass spectrometry (LC/MS). Based on the data obtained, Buf. remaining rate (%) was calculated according to the following equation. Buf.remaining rate(%) = amount of sample 0,10, or 60 minutes after incubation/amount of sample at zero time after incubation × 100 [formula]

The nature of data set [3]: Metabolic stability test in plasma. It is filed as in vitro ADME, human. Conditions: LC/MS; for remaining at 10 min: unchanged form after 10 minutes at 37°C in human plasma, read-out: Remaining rate in human plasma (%/10min); for remaining at 1 h: unchanged form after 60 minutes at 37°C in human plasma, read-out: Remaining rate in human plasma (%/60min). The procedure: A sample dissolved in DMSO was added to plasma of human or animal species (mouse and hamster). The solutions were incubated at 37°C for 0, 10 and 60 minutes, and acetonitrile containing formic acid (final concentration: 0.1%) was added thereto. The solutions were centrifuged, and the concentration of the sample (unchanged form) in the supernatant was determined by high performance liquid chromatography/mass spectrometry (LC/MS). Based on the data obtained, the remaining rate (%) was calculated according to the following equation. Remaining rate(%) = amount of sample 0,10, or 60 minutes after incubation/amount of sample at zero time after incubation × 100 [formula]
as §1

The source of these data is EP1803452A1, “ESTER DERIVATIVE AND PHARMACEUTICAL USE THEREOF” (Japan Tobacco, Inc., priority 2004, dated 2006).

Regarding `COC(=O)c1ccc(OC(=O)C2CCN(c3ccc(NC(=O)c4ccccc4-c4ccc(C(F)(F)F)cc4)c(C(=O)N(C)C)c3)CC2)cc1` [Compound 3-1, 1-(3-dimethylcarbamoyl-4-[(4'-trifluoromethylbiphenyl-2-carbonyl)amino]phenyl}piperidine-4-carboxylic acid 4-methoxycarbonylphenyl ester], the remaining at 10 min was determined as 2% in data set [1], 98% in data set [2] and 63% in data set [3]. The values for the remaining at 1 h in data set [1], in data set [2] and in data set [3] were 0%, 102% and 6%, respectively.
`COC(=O)c1ccc(OC(=O)CCCc2ccc(NC(=O)c3ccccc3-c3ccc(C(F)(F)F)cc3)c(C(=O)N(C)C)c2)cc1OC` [Compound 1-17, 4-(4-{3-dimethylcarbamoyl-4-[(4'-trifluoromethylbiphenyl-2-carbonyl)amino]phenyl}butyryloxy) -2-methoxybenzoic acid methyl ester]: the values for the remaining at 10 min in data set [1], in data set [2] and in data set [3] were 0%, 100% and 0%, respectively. The remaining at 1 h was found to be 0% in data set [1], 105% in data set [2] and 0% in data set [3].
On to `COC(=O)c1ccc(OC(=O)CCCc2ccc(NC(=O)c3ccc(C)nc3-c3ccc(C(F)(F)F)cc3)c(C(=O)N(C)C)c2)cc1` [Compound 1-13, 4-[4-(3-dimethylcarbamoyl-4-{[6-methyl-2-(4-trufluoromethylphenyl)pyridine-3-carbonyl]amino}phenyl)butyryloxy)benzoic acid methyl ester], for which the remaining at 10 min in data set [1] is 0%; in data set [2], 95%; in data set [3], 24%. The remaining at 1 h in data set [1] was 0%; in data set [2], 97%; in data set [3] it was 0%.
On to `CCOC(=O)c1cc(C)c(OC(=O)CCCc2ccc(NC(=O)c3ccc(C)nc3-c3ccc(C(F)(F)F)cc3)c(C(=O)N(C)C)c2)c(Cl)c1` [Compound 1-112, 3-chloro-4-[4-(3-dimethylcarbamoyl-4-{[6-methyl-2-(4-trifluoromethylphenyl)pyridine-3-carbonyl]amino}phenyl)butyryloxy]-5-methylbenzoic acid ethyl ester], for which the remaining at 10 min in data set [1] is 27%; in data set [2] it was 99%; in data set [3] it was 48%. Also, the remaining at 1 h worked out at 8% in data set [1], 100% in data set [2] and 0% in data set [3].
As for `COc1ccc(COC(=O)c2ccc(OC(=O)CCCc3ccc(NC(=O)c4ccccc4-c4ccc(C(F)(F)F)cc4)c(C(=O)N(C)C)c3)cc2)cc1` [Compound 1-96, 4-[4-(3-dimethylcarbamoyl-4-{(4'-trifluoromethylbiphenyl-2-carbonyl)amino}phenyl)butyryloxy]benzoic acid 4-methoxybenzyl ester], the remaining at 10 min turned out to be 15% in data set [1], 100% in data set [2] and 0% in data set [3]. Further, the remaining at 1 h stood at 7% in data set [1], 109% in data set [2] and 0% in data set [3].
With `COc1cc(C(=O)OCCNC(C)=O)cc(Cl)c1OC(=O)CCCc1ccc(NC(=O)c2ccc(C)nc2-c2ccc(C(F)(F)F)cc2)c(C(=O)N(C)C)c1` [Compound 1-114, 3-chloro-4-[4-(3-dimethylcarbamoyl-4-{[6-methyl-2-(4-trifluoromethylphenyl)pyridine-3-carbonyl]amino}phenyl)butyryloxy]-5-methoxybenzoic acid 2-acetylaminoethyl ester], the remaining at 10 min in data set [1] turned out to be 14%; in data set [2] it was 104%; in data set [3] it was 2%. Further, the remaining at 1 h in data set [1] turned out to be 3%; in data set [2], 108%; in data set [3] it was 0%.
